{"source": "paper PMC3814793", "about": "“Identification of a Plasmodium falciparum Phospholipid Transfer Protein” (The Journal of Biological Chemistry, 2013)", "test_in_all_cases": "radiolabelled phospholipid transfer between donor and acceptor vesicles", "assay_type_in_all_cases": "biochemical", "key": {"PFA0210cN99": {"biological_target": "T1, PFA0210cN99 (Plasmodium falciparum, UniProt Q8I298)", "T1 construct": "gene PF3D7_0104200", "T1 sequence (Q8I298 entry or part of it)": "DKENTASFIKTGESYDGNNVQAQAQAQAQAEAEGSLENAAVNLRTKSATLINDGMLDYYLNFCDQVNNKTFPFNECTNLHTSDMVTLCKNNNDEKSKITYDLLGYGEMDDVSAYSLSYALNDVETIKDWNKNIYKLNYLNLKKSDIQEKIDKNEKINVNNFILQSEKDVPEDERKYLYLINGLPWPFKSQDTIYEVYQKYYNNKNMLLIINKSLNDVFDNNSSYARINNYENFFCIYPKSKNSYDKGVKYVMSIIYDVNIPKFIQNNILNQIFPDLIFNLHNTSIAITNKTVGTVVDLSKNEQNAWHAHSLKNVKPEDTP", "settings": "labelled compound, donor vesicles PC, phosphatidic acid, N-lactosylethanolamine"}, "[1]": {"biological_target": "T2, PITP (rat phosphatidylinositol transfer protein α) (Rattus norvegicus, UniProt P16446)", "T2 construct": "gene Pitpna", "T2 sequence (P16446 2-271)": "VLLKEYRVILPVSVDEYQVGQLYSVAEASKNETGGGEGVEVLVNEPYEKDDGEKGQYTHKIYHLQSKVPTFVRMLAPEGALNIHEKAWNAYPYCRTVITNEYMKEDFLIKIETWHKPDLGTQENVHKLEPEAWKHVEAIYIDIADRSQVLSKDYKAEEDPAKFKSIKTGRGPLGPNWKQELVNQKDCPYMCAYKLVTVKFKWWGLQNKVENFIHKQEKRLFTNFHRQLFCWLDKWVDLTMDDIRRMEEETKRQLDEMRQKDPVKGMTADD", "settings": "labelled compound; positive control protein; vesicles as in the rows above"}, "PFA0210cN123": {"biological_target": "T3, PFA0210cN123 (Plasmodium falciparum, UniProt Q8I298)", "T3 construct": "gene PF3D7_0104200", "T3 sequence (Q8I298 entry or part of it)": "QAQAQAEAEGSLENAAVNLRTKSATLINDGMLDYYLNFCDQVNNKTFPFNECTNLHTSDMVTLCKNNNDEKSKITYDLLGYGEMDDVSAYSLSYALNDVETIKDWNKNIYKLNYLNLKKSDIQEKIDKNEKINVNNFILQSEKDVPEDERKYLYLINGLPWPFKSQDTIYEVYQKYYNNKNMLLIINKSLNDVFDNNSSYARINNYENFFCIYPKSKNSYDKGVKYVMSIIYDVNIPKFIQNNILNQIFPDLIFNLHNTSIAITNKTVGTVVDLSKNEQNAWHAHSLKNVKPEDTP", "settings": "labelled compound, donor vesicles PC, phosphatidic acid, N-lactosylethanolamine"}}}
{"smiles": "CCCCCCCCCCCCCCCC(=O)OC[C@H](COP(=O)([O-])OCC[N+](C)(C)C)OC(=O)CCCCCCCCCCCCCCC", "note": "[L-[α-dipalmitoyl-1-14C]phosphatidylcholine]", "values": [{"measurement": "radiolabelled phospholipid transfer between donor and acceptor vesicles", "setting": "PFA0210cN99", "value": "(PFA0210cN99, PFA0210cN123, and PFA0210cN144, respectively) as the N-terminal residue can transfer phospholipids"}, {"measurement": "radiolabelled phospholipid transfer between donor and acceptor vesicles", "setting": "[1]", "value": "transferred PC at levels similar to that of the control protein PITP"}, {"measurement": "radiolabelled phospholipid transfer between donor and acceptor vesicles", "setting": "PFA0210cN123", "value": "(PFA0210cN99, PFA0210cN123, and PFA0210cN144, respectively) as the N-terminal residue can transfer phospholipids"}]}
